Measurements as given in ChEMBL document CHEMBL5723035, “Affinity Biochemical Literature for EUbOPEN Chemogenomic Library” (2024).
One block for each compound: values may come before it.

Columns and labels:
Set-up in all cases: mode of action Inhibitor, recommended concentration 1 uM
[1] = biological target: Lysine-specific demethylase 4B (Homo sapiens, UniProt O94953); test: Affinity Biochemical interaction: (AlphaScreen) EUB0002543a KDM4B; type: functional
[2] = biological target: Lysine-specific demethylase 4C (Homo sapiens, UniProt Q9H3R0); test: Affinity Biochemical interaction: (AlphaScreen) EUB0002543a KDM4C; type: functional
[3] = biological target: T1, Lysine-specific demethylase 4A (Homo sapiens, UniProt O75164); test: Affinity Biochemical interaction: (AlphaScreen) EUB0002543a KDM4A; type: functional
T1 sequence (O75164 whole entry): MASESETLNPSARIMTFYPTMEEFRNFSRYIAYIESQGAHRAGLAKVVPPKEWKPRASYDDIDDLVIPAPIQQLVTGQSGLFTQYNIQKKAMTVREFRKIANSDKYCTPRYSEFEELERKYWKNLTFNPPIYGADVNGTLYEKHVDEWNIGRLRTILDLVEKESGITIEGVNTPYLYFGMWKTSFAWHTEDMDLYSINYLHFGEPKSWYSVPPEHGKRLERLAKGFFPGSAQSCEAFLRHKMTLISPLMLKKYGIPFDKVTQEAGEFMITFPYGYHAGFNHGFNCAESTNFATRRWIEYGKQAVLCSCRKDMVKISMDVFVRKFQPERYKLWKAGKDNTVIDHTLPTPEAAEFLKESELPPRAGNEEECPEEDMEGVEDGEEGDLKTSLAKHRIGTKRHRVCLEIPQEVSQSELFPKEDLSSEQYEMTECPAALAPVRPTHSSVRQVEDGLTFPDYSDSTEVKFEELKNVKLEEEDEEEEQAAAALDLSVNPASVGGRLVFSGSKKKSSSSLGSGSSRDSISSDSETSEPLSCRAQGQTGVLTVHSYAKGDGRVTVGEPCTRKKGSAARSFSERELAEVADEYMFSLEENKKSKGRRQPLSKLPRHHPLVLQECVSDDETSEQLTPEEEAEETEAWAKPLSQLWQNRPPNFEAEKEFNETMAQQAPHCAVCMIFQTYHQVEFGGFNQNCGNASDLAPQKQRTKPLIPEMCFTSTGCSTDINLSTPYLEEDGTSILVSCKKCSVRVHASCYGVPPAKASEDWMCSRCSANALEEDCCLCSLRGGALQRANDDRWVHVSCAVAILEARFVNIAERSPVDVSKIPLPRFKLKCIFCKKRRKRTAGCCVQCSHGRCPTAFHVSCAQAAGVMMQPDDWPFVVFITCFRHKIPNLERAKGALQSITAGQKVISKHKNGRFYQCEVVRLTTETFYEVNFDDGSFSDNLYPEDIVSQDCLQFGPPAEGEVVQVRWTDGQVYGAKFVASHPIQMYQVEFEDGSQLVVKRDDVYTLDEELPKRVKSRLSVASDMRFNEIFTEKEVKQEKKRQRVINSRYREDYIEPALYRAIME

[4] = biological target: T1, Lysine-specific demethylase 4A; test: Affinity Biochemical interaction: (Biolayer interferometry) EUB0002543a KDM4A
[5] = biological target: Bromodomain-containing protein 4 (Homo sapiens, UniProt O60885); test: Affinity Biochemical interaction: (TR-FRET) EUB0002661a BRD4; type: functional
[6] = biological target: Arginase-2, mitochondrial (Homo sapiens, UniProt P78540); test: Affinity Biochemical interaction: (competitive binding assay with radiolabelled [guanido-14C][…] as substrate) EUB0002484aCl ARG2
[7] = biological target: sn-1-specific diacylglycerol lipase ABHD11 (Homo sapiens, UniProt Q8NFV4); test: Affinity Biochemical interaction: (fluorescence-based biochemical gel-based Activity-Based Protein Profiling (ABPP)) EUB0002643a ABHD11; type: functional
[8] = biological target: NAD-dependent protein deacetylase sirtuin-7 (Homo sapiens, UniProt Q9NRC8); test: Affinity Biochemical interaction: (inhibition of deacetylase activity, luminescence measurement using the SIRT7 assay kit) EUB0002717a SIRT7; type: functional
[9] = biological target: Synaptic vesicular amine transporter (Homo sapiens, UniProt Q05940); test: Affinity Biochemical interaction: (Inhibition of radiolabelled [3H]dopamine uptake) EUB0002590aCl SLC18A2
[10] = biological target: Protein-arginine deiminase type-4 (Homo sapiens, UniProt Q9UM07); test: Affinity Biochemical interaction: (enzyme inhibition, detection of citrullated histone H3 by either immunoblot with LiC or quantitation or an ELISA-based assay using anti-citrullated histone H3 rabbit polyclonal antibody) EUB0002517a PADI4; type: functional
Adenosine kinase = Adenosine kinase (Homo sapiens, UniProt P55263); test: Affinity Biochemical interaction: (radiochemical assay, inhibition of AK activity in cell supernatants) EUB0002485aCl ADK; type: functional, subcellular
Chain of Adenosine kinase (P55263 whole entry): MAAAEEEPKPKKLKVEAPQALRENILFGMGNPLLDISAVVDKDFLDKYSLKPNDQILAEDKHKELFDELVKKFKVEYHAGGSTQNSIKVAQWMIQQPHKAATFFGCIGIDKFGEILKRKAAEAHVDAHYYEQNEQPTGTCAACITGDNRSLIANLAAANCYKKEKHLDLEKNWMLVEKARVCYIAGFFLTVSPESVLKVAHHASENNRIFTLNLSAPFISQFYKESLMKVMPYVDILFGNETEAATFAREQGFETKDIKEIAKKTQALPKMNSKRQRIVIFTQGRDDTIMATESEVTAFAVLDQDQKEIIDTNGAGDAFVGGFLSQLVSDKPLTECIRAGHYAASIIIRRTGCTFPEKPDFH

[11] = biological target: cAMP and cAMP-inhibited cGMP 3',5'-cyclic phosphodiesterase 10A (Homo sapiens, UniProt Q9Y233); test: Affinity Biochemical interaction: (inhibition of enzyme activity with [3H]cGMP or [3H]cAMP as the substrate) EUB0002477a PDE10A; type: functional
[12] = biological target: High affinity cAMP-specific and IBMX-insensitive 3',5'-cyclic phosphodiesterase 8A (Homo sapiens, UniProt O60658); test: Affinity Biochemical interaction: (inhibition of enzyme activity with [3H]cGMP or [3H]cAMP as the substrate) EUB0002477a PDE8A; type: functional
[13] = biological target: cGMP-dependent 3',5'-cyclic phosphodiesterase (Homo sapiens, UniProt O00408); test: Affinity Biochemical interaction: (inhibition of enzyme activity with [3H]cGMP or [3H]cAMP as the substrate) EUB0002477a PDE2A; type: functional
[14] = biological target: T2, 3',5'-cyclic-AMP phosphodiesterase 4D (Homo sapiens, UniProt Q08499); test: Affinity Biochemical interaction: (inhibition of enzyme activity with [3H]cGMP or [3H]cAMP as the substrate) EUB0002477a PDE4D; type: functional
T2 sequence (Q08499 whole entry): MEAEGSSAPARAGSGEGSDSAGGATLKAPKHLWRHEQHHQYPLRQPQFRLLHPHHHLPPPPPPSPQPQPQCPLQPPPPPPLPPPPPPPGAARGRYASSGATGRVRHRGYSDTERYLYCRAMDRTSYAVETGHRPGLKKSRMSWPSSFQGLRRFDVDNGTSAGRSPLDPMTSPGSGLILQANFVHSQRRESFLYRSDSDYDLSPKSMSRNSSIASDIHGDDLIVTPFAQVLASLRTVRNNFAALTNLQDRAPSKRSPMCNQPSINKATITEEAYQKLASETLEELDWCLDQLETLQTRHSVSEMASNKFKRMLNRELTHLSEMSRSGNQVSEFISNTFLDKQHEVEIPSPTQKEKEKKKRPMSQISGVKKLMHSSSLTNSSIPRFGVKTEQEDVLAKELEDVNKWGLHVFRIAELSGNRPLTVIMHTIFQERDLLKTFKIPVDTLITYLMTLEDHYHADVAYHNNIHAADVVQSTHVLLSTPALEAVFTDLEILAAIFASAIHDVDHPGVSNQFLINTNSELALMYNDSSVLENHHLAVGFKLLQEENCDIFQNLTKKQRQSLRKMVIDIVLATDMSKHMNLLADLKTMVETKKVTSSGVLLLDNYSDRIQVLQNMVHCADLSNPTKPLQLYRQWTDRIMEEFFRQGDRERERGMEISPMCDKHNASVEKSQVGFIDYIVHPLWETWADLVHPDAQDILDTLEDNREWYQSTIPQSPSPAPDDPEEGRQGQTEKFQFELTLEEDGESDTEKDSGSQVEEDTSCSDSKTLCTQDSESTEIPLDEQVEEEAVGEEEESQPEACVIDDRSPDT

[15] = biological target: High affinity 3',5'-cyclic-AMP phosphodiesterase 7A (Homo sapiens, UniProt Q13946); test: Affinity Biochemical interaction: (inhibition of enzyme activity with [3H]cGMP or [3H]cAMP as the substrate) EUB0002477a PDE7A; type: functional
Histone deacetylase 2 = Histone deacetylase 2 (Homo sapiens, UniProt Q92769); test: Affinity Biochemical interaction: (fluorometric activity assay) EUB0002519a HDAC2; type: functional
Chain of Histone deacetylase 2 (Q92769 whole entry): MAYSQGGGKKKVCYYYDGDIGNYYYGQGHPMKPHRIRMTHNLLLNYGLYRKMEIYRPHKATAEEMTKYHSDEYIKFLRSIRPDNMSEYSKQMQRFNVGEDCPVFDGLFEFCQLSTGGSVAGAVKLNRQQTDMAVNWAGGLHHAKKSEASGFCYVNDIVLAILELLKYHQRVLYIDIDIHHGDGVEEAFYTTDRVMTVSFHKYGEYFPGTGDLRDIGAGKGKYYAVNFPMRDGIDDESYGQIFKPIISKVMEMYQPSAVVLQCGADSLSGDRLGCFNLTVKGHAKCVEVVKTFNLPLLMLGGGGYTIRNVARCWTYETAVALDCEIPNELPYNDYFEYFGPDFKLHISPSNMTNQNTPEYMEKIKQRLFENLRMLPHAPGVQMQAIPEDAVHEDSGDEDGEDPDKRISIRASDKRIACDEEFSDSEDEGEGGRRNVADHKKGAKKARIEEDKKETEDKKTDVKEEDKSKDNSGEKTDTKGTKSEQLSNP

Histone deacetylase 1 = Histone deacetylase 1 (Homo sapiens, UniProt Q13547); test: Affinity Biochemical interaction: (fluorometric activity assay) EUB0002519a HDAC1; type: functional
[16] = biological target: T3, Breast cancer type 1 susceptibility protein (Homo sapiens, UniProt P38398); test: Affinity Biochemical interaction: (ITC) EUB0002518a BRCA1
T3 sequence (P38398 whole entry): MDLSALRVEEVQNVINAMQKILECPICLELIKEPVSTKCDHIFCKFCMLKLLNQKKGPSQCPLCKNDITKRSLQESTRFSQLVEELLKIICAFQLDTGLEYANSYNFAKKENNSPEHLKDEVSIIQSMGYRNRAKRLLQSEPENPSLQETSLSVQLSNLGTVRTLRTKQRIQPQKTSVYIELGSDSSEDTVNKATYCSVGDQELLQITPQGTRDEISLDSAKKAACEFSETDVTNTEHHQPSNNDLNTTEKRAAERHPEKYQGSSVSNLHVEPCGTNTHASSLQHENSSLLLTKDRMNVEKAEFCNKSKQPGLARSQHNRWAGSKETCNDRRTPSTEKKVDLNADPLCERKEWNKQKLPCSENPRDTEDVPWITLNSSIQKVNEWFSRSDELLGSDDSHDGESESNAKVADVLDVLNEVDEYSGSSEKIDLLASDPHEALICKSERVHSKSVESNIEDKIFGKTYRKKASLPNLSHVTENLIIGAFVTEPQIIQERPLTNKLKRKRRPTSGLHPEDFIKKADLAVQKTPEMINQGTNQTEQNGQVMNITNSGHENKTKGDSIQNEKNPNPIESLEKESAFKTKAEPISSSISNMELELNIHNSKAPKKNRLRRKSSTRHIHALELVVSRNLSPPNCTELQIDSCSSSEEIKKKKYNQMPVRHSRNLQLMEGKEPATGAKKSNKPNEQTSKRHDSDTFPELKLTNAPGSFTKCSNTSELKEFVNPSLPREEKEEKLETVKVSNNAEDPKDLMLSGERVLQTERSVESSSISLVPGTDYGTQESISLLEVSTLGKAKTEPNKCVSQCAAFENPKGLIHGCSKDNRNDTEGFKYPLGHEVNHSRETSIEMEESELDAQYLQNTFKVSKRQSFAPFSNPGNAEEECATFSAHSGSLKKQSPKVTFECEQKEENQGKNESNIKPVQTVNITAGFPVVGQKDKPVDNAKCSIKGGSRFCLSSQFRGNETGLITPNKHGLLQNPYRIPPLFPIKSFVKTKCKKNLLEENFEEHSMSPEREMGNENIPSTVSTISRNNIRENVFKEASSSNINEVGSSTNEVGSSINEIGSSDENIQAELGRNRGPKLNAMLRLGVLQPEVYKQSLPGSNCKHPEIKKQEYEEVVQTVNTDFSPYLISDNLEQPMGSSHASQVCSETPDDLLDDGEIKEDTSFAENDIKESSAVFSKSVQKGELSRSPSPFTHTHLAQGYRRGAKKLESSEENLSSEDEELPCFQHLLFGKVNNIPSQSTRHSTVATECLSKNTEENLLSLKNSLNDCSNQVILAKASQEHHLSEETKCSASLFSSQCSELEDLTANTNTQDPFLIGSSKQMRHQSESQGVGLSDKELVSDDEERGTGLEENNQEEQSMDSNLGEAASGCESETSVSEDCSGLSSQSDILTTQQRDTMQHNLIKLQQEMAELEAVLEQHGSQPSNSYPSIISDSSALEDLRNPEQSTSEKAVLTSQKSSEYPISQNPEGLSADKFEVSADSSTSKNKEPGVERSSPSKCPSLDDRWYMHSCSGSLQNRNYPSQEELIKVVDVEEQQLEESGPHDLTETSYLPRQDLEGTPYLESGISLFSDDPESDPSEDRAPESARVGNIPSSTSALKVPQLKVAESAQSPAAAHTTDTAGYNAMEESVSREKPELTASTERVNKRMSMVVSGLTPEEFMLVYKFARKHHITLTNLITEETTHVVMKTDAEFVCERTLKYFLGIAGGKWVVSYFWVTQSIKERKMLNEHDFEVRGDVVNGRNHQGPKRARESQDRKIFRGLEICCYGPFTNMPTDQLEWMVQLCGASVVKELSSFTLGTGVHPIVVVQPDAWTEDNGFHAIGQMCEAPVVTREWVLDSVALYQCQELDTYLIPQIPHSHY

[17] = biological target: T3, Breast cancer type 1 susceptibility protein; test: Affinity Biochemical interaction: (Fluorescence polarisation assay) EUB0002518a BRCA1; type: functional
[18] = biological target: T4, Equilibrative nucleoside transporter 1 (Homo sapiens, UniProt Q99808); test: Affinity Biochemical interaction: (radioligand binding assay, inhibition of [3H]S-(4-Nitrobenzyl)-6-thioinosine binding to target) EUB0002560a SLC29A1
T4 sequence (Q99808 whole entry): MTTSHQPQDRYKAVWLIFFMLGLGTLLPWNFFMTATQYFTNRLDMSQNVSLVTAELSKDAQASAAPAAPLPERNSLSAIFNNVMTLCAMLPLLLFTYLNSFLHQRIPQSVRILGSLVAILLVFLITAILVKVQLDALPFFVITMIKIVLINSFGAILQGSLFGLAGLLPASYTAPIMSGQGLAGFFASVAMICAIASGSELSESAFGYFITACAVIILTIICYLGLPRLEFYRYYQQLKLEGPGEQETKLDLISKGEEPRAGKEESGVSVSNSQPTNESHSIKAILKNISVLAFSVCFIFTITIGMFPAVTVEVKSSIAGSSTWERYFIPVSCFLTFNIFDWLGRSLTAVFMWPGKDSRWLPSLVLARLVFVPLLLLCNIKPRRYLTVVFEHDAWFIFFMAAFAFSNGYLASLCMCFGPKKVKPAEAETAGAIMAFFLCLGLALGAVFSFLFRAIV

[19] = biological target: T4, Equilibrative nucleoside transporter 1; test: Affinity Biochemical interaction: (inhibition of [3H]nitrobenzylthioinosine binding to SLC29A1 in membranes) EUB0002560a SLC29A1; type: cell membranes
[20] = biological target: T2, 3',5'-cyclic-AMP phosphodiesterase 4D; test: Affinity Biochemical interaction: (radioligand binding assay, inhibition of [3H]cAMP or [3H]cGMP cleavage) EUB0002534a PDE4D
[21] = biological target: 3',5'-cyclic-AMP phosphodiesterase 4A (Homo sapiens, UniProt P27815); test: Affinity Biochemical interaction: (radioligand binding assay, inhibition of [3H]cAMP or [3H]cGMP cleavage) EUB0002534a PDE4A
[22] = biological target: 3',5'-cyclic-AMP phosphodiesterase 4C (Homo sapiens, UniProt Q08493); test: Affinity Biochemical interaction: (radioligand binding assay, inhibition of [3H]cAMP or [3H]cGMP cleavage) EUB0002534a PDE4C
[23] = biological target: 3',5'-cyclic-AMP phosphodiesterase 4B (Homo sapiens, UniProt Q07343); test: Affinity Biochemical interaction: (radioligand binding assay, inhibition of [3H]cAMP or [3H]cGMP cleavage) EUB0002534a PDE4B

- IC50 [1]: 33 nM
- IC50 [2]: 39 nM
- IC50 [3]: 42 nM
- Kd [4]: 29.8 nM
Structure (SMILES): CC(C)[C@@H]1NC(=O)[C@H](Cc2ccc(O)cc2)NC(=O)[C@@H](CC(=O)O)NC(=O)S[C@@H](C(=O)O)NC(=O)[C@H]([C@H](C)O)NC(=O)[C@H](Cc2ccc(O)cc2)NC(=O)[C@H](Cc2c[nH]c3ccccc23)NC(=O)[C@H](CCCNC(=N)N)NC(=O)[C@H](Cc2c[nH]c3ccccc23)NC(=O)[C@H](C)NC(=O)[C@H](CO)NC(=O)[C@H](CCCNC(=N)N)NC(=O)[C@H]([C@H](C)O)NC(=O)[C@H](CC(N)=O)NC(=O)[C@H](Cc2ccc(O)cc2)NC1=O

- IC50 [5]: 2.7 nM
Structure (SMILES): Cc1nnn(C)c1-c1cnc2c3cc4cnn(C)c4cc3n([C@H](c3ccccc3)C3CCOCC3)c2c1

- Ki [6]: 250 nM
Structure (SMILES): N[C@@H](CCCCB(O)O)C(=O)O

- IC50 [7]: 15 nM
Structure (SMILES): CCC1CCCCN1C(=O)n1ncc(C(O)(c2ccccc2)c2ccccc2)n1 (stereo unspecified)

- IC50 [8]: 325 nM
Structure (SMILES): Nc1cccc(Nc2ncc(-c3ccc(Cl)cc3)o2)c1

- Ki [9]: 29 nM
Structure (SMILES): COc1ccc(CC[C@H]2CCC[C@@H](CCc3ccc(OC)cc3)N2C[C@@H](O)CO)cc1

- IC50 [10]: 98 nM
Structure (SMILES): COc1cc(C(=O)N2C[C@H](N)CC[C@@H]2C)cc2nc(-c3cc4cccnc4n3CC3CC3)n(C)c12

- IC50 (Adenosine kinase): 3 nM
Structure (SMILES): Nc1ncnc2nc(-c3ccc(N4CCOCC4)nc3)cc(-c3cccc(Br)c3)c12

- IC50 [11]: 2.3 nM
- IC50 [12]: 1 nM
- IC50 [13]: 2.4 nM
- IC50 [14]: 1.3 nM
- IC50 [15]: 2.5 nM
Structure (SMILES): C[C@H](Nc1nc2c(cnn2C2CCCC2)c(=O)[nH]1)c1ccc(Cl)cc1

- IC50 (Histone deacetylase 2): 100 nM
- IC50 (Histone deacetylase 1): 40 nM
Structure (SMILES): Nc1ccc(-c2cccs2)cc1NC(=O)c1ccc(NC=O)cc1

- Kd [16]: 300 nM
- IC50 [17]: 310 nM
Structure (SMILES): O=C(CNC(=O)[C@H](COP(=O)(O)O)NC(=O)CCc1c[nH]c2ccccc12)NCCCCc1ccccc1

- Ki [18]: 0.94 nM
- Ki [19]: 0.28 nM
Structure (SMILES): NC(=O)C1CN(CCCCC(c2ccc(F)cc2)c2ccc(F)cc2)CCN1CC(=O)Nc1c(Cl)cc(N)cc1Cl (stereo unspecified) [DRAFLAZINE]

Structure (SMILES): Nc1cc2c3c(c1)C(c1ccccc1)=N[C@@H](NC(=O)c1cccnc1)C(=O)N3CC2
- IC50 [20]: 90 nM
- IC50 [21]: 290 nM
- IC50 [22]: 560 nM
- IC50 [23]: 80 nM
